What was measured:
cocklebur = assay: Test B pre/postemergence cocklebur; assay type: in vivo, Xanthium strumarium; conditions: for Cocklebur plant response rating (0 to 10 scale): 0 is no effect
How it was run: (§1)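 Herbicidal effect was estimated by eye on a ten-point control scale after plants spent twelve to sixteen days in a greenhouse following soil or foliar treatment. Foliar sprays targeted plants at one to four leaves; all doses were formulated in a non-phytotoxic solvent with surfactant.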

soybean = assay: Test B pre/postemergence soybean; assay type: in vivo, Glycine max; conditions: for Soybean plant response rating (0 to 10 scale): 0 is no effect
How it was run: as §1

velvetleaf = assay: Test B pre/postemergence velvetleaf; assay type: in vivo, Abutilon theophrasti
How it was run: as §1

duck salad = assay: Test B flood test duck salad; assay type: in vivo, Heteranthera limosa
How it was run: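 Plants were grown to the 2-leaf stage before treatment with test chemical, then held in a greenhouse for twelve to sixteen days. Injury was visually rated against untreated controls on a 0–10 scale, where 0 is no effect and 10 is complete control.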

winter wheat [1] = assay: Test E winter wheat; assay type: in vivo, Triticum aestivum; conditions: Postemergence
How it was run: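 Visually scored herbicidal effect relative to untreated plants, taken ~21 to 28 days post-application; compound in solvent with surfactant; postemergence sprays at the 1- to 4-leaf stage.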

blackgrass = assay: Test E blackgrass; assay type: in vivo, Alopecurus myosuroides; conditions: Preemergence; for Blackgrass plant response rating (0 to 100 scale): Rate 250 g/ha
green foxtail = assay: Test E green foxtail; assay type: in vivo, Setaria viridis; conditions: Preemergence; for Green foxtail plant response rating (0 to 100 scale): Rate 250 g/ha
Italian ryegrass = assay: Test E Italian ryegrass; assay type: in vivo, Lolium multiflorum; conditions: Preemergence; for I. Ryegrass plant response rating (0 to 100 scale): Rate 250 g/ha
winter wheat [2] = assay: Test E winter wheat; assay type: in vivo, Triticum aestivum; conditions: Preemergence; for Wheat (winter) plant response rating (0 to 100 scale): Rate 250 g/ha
wild oat = assay: Test E wild oat; assay type: in vivo, Avena fatua; conditions: Preemergence; for Wild oat plant response rating (0 to 100 scale): Rate 250 g/ha
winter barley = assay: Test E winter barley; assay type: in vivo, Hordeum vulgare; conditions: Preemergence; for Barley (winter) plant response rating (0 to 100 scale): Rate 250 g/ha
[3] = Preemergence, Rate 62 g/ha, scale of 0 to 10 where 0 is no effect and 10 is complete control
[4] = Preemergence, Rate 125 g/ha, 10 is complete control
[5] = Preemergence, Rate 250 g/ha, scale 0 to 10, 0 is no effect, 10 is complete control
[6] = Preemergence, Rate 500 g/ha, scale of 0 to 10 where 0 is no effect and 10 is complete control
[7] = Rate 62 g/ha, Postemergence, scale of 0 to 10 where 0 is no effect and 10 is complete control
[8] = Rate 125 g/ha, Postemergence, scale 0 to 10
[9] = Rate 500 g/ha, Postemergence, scale 0 to 10
[10] = Rate 62 g/ha, 0 to 100 scale, 0 no effect, 100 complete control
[11] = Rate 125 g/ha, 0 to 100 scale (0 no effect, 100 complete control)
[12] = Rate 62 g/ha, headed Pre-emergence (flood test species), scale 0 to 10 (0 no effect, 10 complete control)
[13] = Rate 125 g/ha, Pre-emergence, flood test species, scale 0 to 10 where 0 is no effect and 10 is complete control
[14] = Rate 250 g/ha, Pre-emergence, flood-test species, scale 0 to 10, 0 is no effect, 10 is complete control
[15] = Rate 500 g/ha, Pre-emergence, flood test species, scale 0 to 10 (0 no effect, 10 complete control)
[16] = Rate 500 g/ha, 0 to 100 scale, 0 is no effect, 100 is complete control
[17] = Rate 500 g/ha, 0 to 100 scale where 0 is no effect and 100 is complete control
[18] = Rate 1000 g/ha, 0 to 100 scale where 0 is no effect and 100 is complete control
[19] = Preemergence, Rate 250 g/ha, scale of 0 to 10 where 0 is no effect and 10 is complete control
[20] = Rate 125 g/ha, Preemergence, scale of 0 to 10 where 0 is no effect and 10 is complete control
[21] = Rate 500 g/ha, Postemergence, scale 0 to 10, 0 no effect, 10 complete control
[22] = Rate 1000 g/ha, 0 to 100 scale, 0 no effect, 100 complete control

## C=C(C)CCn1c(=O)on(C(=O)N(c2ccc(F)cc2)C(C)C)c1=O [Compound 199]
cocklebur; [3]
  Cocklebur plant response rating: 0
cocklebur; [4]
  Cocklebur plant response rating (0 to 10 scale): 0
cocklebur; [5]
  Cocklebur plant response rating: 0
cocklebur; [6]
  Plant response rating, Cocklebur: 0
cocklebur; [7]
  Cocklebur plant response rating: 0
cocklebur; [8]
  Cocklebur plant response rating: 0
cocklebur; Rate 250 g/ha, Postemergence
  Plant response rating (0 to 10; 0 is no effect, 10 is complete control), Cocklebur: 0
cocklebur; [9]
  Cocklebur plant response rating: 3
soybean; [3]
  Soybean plant response rating: 0
soybean; [4]
  Soybean plant response rating (0 to 10 scale): 0
soybean; [5]
  Soybean plant response rating: 0
soybean; [6]
  Plant response rating, Soybean: 0
soybean; [7]
  Soybean plant response rating: 2
soybean; [8]
  Soybean plant response rating: 2
soybean; Rate 250 g/ha, Postemergence
  Plant response rating (0 to 10; 0 is no effect, 10 is complete control), Soybean: 7
soybean; [9]
  Soybean plant response rating: 7
velvetleaf; [3]
  Velvetleaf plant response rating: 0
velvetleaf; [5]
  Velvetleaf plant response rating: 0
velvetleaf; [6]
  Plant response rating, Velvetleaf: 0
velvetleaf; [7]
  Velvetleaf plant response rating: 0
velvetleaf; [8]
  Velvetleaf plant response rating: 0
velvetleaf; Rate 250 g/ha, Postemergence
  Plant response rating (0 to 10; 0 is no effect, 10 is complete control), Velvetleaf: 0
Duck salad; Rate 62 g/ha, Postemergence section, flood test species, scale of 0 to 10 where 0 is no effect and 10 is complete control
  Ducksalad plant response rating: 0
Duck salad; Rate 125 g/ha, listed under Postemergence (flood test species), scale 0 to 10
  Ducksalad plant response rating: 0
Duck salad; Rate 250 g/ha, Postemergence section, flood test species
  Plant response rating (0 to 10; 0 is no effect, 10 is complete control), Ducksalad: 0
Duck salad; Rate 500 g/ha, listed under Postemergence (flood test species), scale 0 to 10
  Ducksalad plant response rating: 2
Winter wheat [1]; Rate 62 g/ha, 0 to 100 scale
  Plant response rating, Wheat (winter): 50
Winter wheat [1]; Rate 125 g/ha, 0 to 100 scale
  Plant response rating, Wheat (winter): 55
blackgrass; [10]
  Plant response rating, Blackgrass: 60
blackgrass; [11]
  Plant response rating, Blackgrass: 65
blackgrass
  Blackgrass plant response rating (0 to 100 scale): 60
Green foxtail; [10]
  Plant response rating, Green foxtail: 100
Green foxtail; [11]
  Plant response rating, Green foxtail: 100
Green foxtail
  Green foxtail plant response rating (0 to 100 scale): 100
Italian ryegrass; [10]
  Plant response rating, I. Ryegrass: 70
Italian ryegrass; [11]
  Plant response rating, I. Ryegrass: 60
Italian ryegrass
  I. Ryegrass plant response rating (0 to 100 scale): 70
Winter wheat [2]; [10]
  Plant response rating, Wheat (winter): 60
Winter wheat [2]; [11]
  Plant response rating, Wheat (winter): 70
Winter wheat [2]
  Wheat (winter) plant response rating (0 to 100 scale): 50
Wild oat; [10]
  Plant response rating, Wild oat: 60
Wild oat; [11]
  Plant response rating, Wild oat: 70
Wild oat
  Wild oat plant response rating (0 to 100 scale): 80
Winter barley; [10]
  Plant response rating, Barley (winter): 70
Winter barley; [11]
  Plant response rating, Barley (winter): 70
Winter barley
  Barley (winter) plant response rating (0 to 100 scale): 70

## CC(C)N(C(=O)n1oc(=O)n(Cc2ccco2)c1=O)c1ccc(F)cc1F [Compound 208]
cocklebur; [3]
  Cocklebur plant response rating: 0
cocklebur; [4]
  Cocklebur plant response rating (0 to 10 scale): 0
cocklebur; [5]
  Cocklebur plant response rating: 0
cocklebur; [6]
  Plant response rating, Cocklebur: 0
cocklebur; [7]
  Cocklebur plant response rating: 0
cocklebur; [8]
  Cocklebur plant response rating: 0
cocklebur; Rate 250 g/ha, Postemergence
  Plant response rating (0 to 10; 0 is no effect, 10 is complete control), Cocklebur: 0
cocklebur; [9]
  Cocklebur plant response rating: 0
soybean; [3]
  Soybean plant response rating: 0
soybean; [4]
  Soybean plant response rating (0 to 10 scale): 0
soybean; [5]
  Soybean plant response rating: 0
soybean; [6]
  Plant response rating, Soybean: 0
soybean; [7]
  Soybean plant response rating: 1
soybean; [8]
  Soybean plant response rating: 1
soybean; Rate 250 g/ha, Postemergence
  Plant response rating (0 to 10; 0 is no effect, 10 is complete control), Soybean: 2
soybean; [9]
  Soybean plant response rating: 2
velvetleaf; [3]
  Velvetleaf plant response rating: 0
velvetleaf; [5]
  Velvetleaf plant response rating: 0
velvetleaf; [6]
  Plant response rating, Velvetleaf: 3
velvetleaf; [7]
  Velvetleaf plant response rating: 1
velvetleaf; [8]
  Velvetleaf plant response rating: 1
velvetleaf; Rate 250 g/ha, Postemergence
  Plant response rating (0 to 10; 0 is no effect, 10 is complete control), Velvetleaf: 1
Duck salad; [12]
  Ducksalad plant response rating: 0
Duck salad; [13]
  Ducksalad plant response rating: 0
Duck salad; [14]
  Ducksalad plant response rating: 0
Duck salad; [15]
  Ducksalad plant response rating: 0
Winter wheat [1]; Rate 1000 g/ha, 0 to 100 scale, 0 is no effect and 100 is complete control
  Plant response rating, Wheat (winter): 60
Winter wheat [1]; [16]
  Plant response rating, Wheat (winter): 50
blackgrass
  Blackgrass plant response rating (0 to 100 scale): 40
blackgrass; [17]
  Plant response rating, Blackgrass: 85
blackgrass; [18]
  Plant response rating, Blackgrass: 85
Green foxtail
  Green foxtail plant response rating (0 to 100 scale): 40
Green foxtail; [17]
  Plant response rating, Green foxtail: 60
Green foxtail; [18]
  Plant response rating, Green foxtail: 70
Italian ryegrass
  I. Ryegrass plant response rating (0 to 100 scale): 50
Italian ryegrass; [17]
  Plant response rating, I. Ryegrass: 60
Italian ryegrass; [18]
  Plant response rating, I. Ryegrass: 95
Winter wheat [2]
  Wheat (winter) plant response rating (0 to 100 scale): 30
Winter wheat [2]; [17]
  Plant response rating, Wheat (winter): 30
Winter wheat [2]; [18]
  Plant response rating, Wheat (winter): 30
Wild oat
  Wild oat plant response rating (0 to 100 scale): 50
Wild oat; [17]
  Plant response rating, Wild oat: 60
Wild oat; [18]
  Plant response rating, Wild oat: 50
Winter barley
  Barley (winter) plant response rating (0 to 100 scale): 30
Winter barley; [17]
  Plant response rating, Barley (winter): 40
Winter barley; [18]
  Plant response rating, Barley (winter): 50

## Cc1nc(C)c(Cn2c(=O)on(C(=O)N(c3ccc(F)cc3)C(C)C)c2=O)s1 [Compound 232]
cocklebur; [3]
  Cocklebur plant response rating: 0
cocklebur; [19]
  Cocklebur plant response rating: 0
cocklebur; [6]
  Plant response rating, Cocklebur: 0
cocklebur; [7]
  Cocklebur plant response rating: 0
cocklebur; [8]
  Cocklebur plant response rating: 2
cocklebur; [20]
  Cocklebur plant response rating: 0
cocklebur; Rate 250 g/ha, Postemergence
  Plant response rating (0 to 10; 0 is no effect, 10 is complete control), Cocklebur: 2
cocklebur; [21]
  Cocklebur plant response rating: 4
soybean; [3]
  Soybean plant response rating: 0
soybean; [19]
  Soybean plant response rating: 0
soybean; [6]
  Plant response rating, Soybean: 0
soybean; [7]
  Soybean plant response rating: 3
soybean; [8]
  Soybean plant response rating: 3
soybean; [20]
  Soybean plant response rating: 0
soybean; Rate 250 g/ha, Postemergence
  Plant response rating (0 to 10; 0 is no effect, 10 is complete control), Soybean: 4
soybean; [21]
  Soybean plant response rating: 4
velvetleaf; [3]
  Velvetleaf plant response rating: 0
velvetleaf; [19]
  Velvetleaf plant response rating: 0
velvetleaf; [6]
  Plant response rating, Velvetleaf: 0
velvetleaf; [7]
  Velvetleaf plant response rating: 2
velvetleaf; [8]
  Velvetleaf plant response rating: 2
velvetleaf; [20]
  Velvetleaf plant response rating: 0
velvetleaf; Rate 250 g/ha, Postemergence
  Plant response rating (0 to 10; 0 is no effect, 10 is complete control), Velvetleaf: 2
velvetleaf; [21]
  Velvetleaf plant response rating: 3
Duck salad; [12]
  Ducksalad plant response rating: 0
Duck salad; [13]
  Ducksalad plant response rating: 0
Duck salad; [14]
  Ducksalad plant response rating: 0
Duck salad; [15]
  Ducksalad plant response rating: 0
Winter wheat [1]; [18]
  Plant response rating, Wheat (winter): 60
Winter wheat [1]; Rate 250 g/ha, 0 to 100 scale where 0 is no effect and 100 is complete control
  Wheat (winter) plant response rating: 40
Winter wheat [1]; [16]
  Plant response rating, Wheat (winter): 50
blackgrass
  Blackgrass plant response rating (0 to 100 scale): 30
blackgrass; [17]
  Plant response rating, Blackgrass: 50
blackgrass; [22]
  Plant response rating, Blackgrass: 50
Green foxtail
  Green foxtail plant response rating (0 to 100 scale): 95
Green foxtail; [17]
  Plant response rating, Green foxtail: 90
Green foxtail; [22]
  Plant response rating, Green foxtail: 100
Italian ryegrass
  I. Ryegrass plant response rating (0 to 100 scale): 40
Italian ryegrass; [17]
  Plant response rating, I. Ryegrass: 50
Italian ryegrass; [22]
  Plant response rating, I. Ryegrass: 55
Winter wheat [2]
  Wheat (winter) plant response rating (0 to 100 scale): 30
Winter wheat [2]; [17]
  Plant response rating, Wheat (winter): 30
Winter wheat [2]; [22]
  Plant response rating, Wheat (winter): 50
Wild oat
  Wild oat plant response rating (0 to 100 scale): 55
Wild oat; [17]
  Plant response rating, Wild oat: 50
Wild oat; [22]
  Plant response rating, Wild oat: 60
Winter barley
  Barley (winter) plant response rating (0 to 100 scale): 20
Winter barley; [17]
  Plant response rating, Barley (winter): 20
Winter barley; [22]
  Plant response rating, Barley (winter): 55
